From US11787854B2, “Immunological targeting of pathological tau proteins” (New York University, priority 2009, dated 2023)

Key:
JNPL3 P301L tangle mice = settings: mouse, in vivo
[1] = system: homozygous JNPL3 tau P301L mice; assay: Rotarod test, actively immunized JNPL3 P301L mice; format: in vivo, mouse; settings: at 5-6 months of age and at 8-9 months of age, vs adjuvant alone
Procedure: (§1) JNPL3 P301L mice received a subcutaneous injection of 100 μl followed by a second injection 2 weeks later and then monthly thereafter (unless otherwise indicated). Vaccination started at 2-3 months of age and continued until the animals were 8-9 months of age at which time the animals were perfused and their organs collected for analysis. The mice went through a battery of sensorimotor tests at 5-6 months and again at 8-9 months of age prior to sacrifice. Control mice received the adjuvant alone.
Rotarod Test: Animals were placed onto the rod (diameter 3.6 cm) apparatus to assess differences in motor coordination and balance by measuring fore- and hindlimb motor coordination and balance (Rotarod 7650 accelerating model; Ugo Basile, Biological Research Apparatus, Varese, Italy). This procedure was designed to assess motor behavior without a practice confound. The animals were habituated to the apparatus by receiving training sessions of two trials, sufficient to reach a baseline level of performance. Then, the mice were tested three additional times, with increasing speed. During habituation, the rotarod was set at 1.0 rpm, which was gradually raised every 30 sec, and was also wiped clean with 30% ethanol solution after each session. A soft foam cushion was placed beneath the apparatus to prevent potential injury from falling. […]

pathological tau = assay: PHF1 immunostaining of pathological tau in brain of actively immunized JNPL3 P301L mice; format: in vivo, mouse; settings: compared to control mice receiving adjuvant only
Procedure: JNPL3 P301L mice received a subcutaneous injection of 100 μl followed by a second injection 2 weeks later and then monthly thereafter (unless otherwise indicated). Vaccination started at 2-3 months of age and continued until the animals were 8-9 months of age at which time the animals were perfused and their organs collected for analysis. The mice went through a battery of sensorimotor tests at 5-6 months and again at 8-9 months of age prior to sacrifice. Control mice received the adjuvant alone. […]
Analysis of tissue sections was quantified with a Bioquant image analysis system. […] For quantitative image analysis of immunohistochemistry, the granular layer of the dentate gyrus was initially selected which consistently contained intraneuronal tau aggregates (pretangles and tangles). […] Four to five sections were analyzed per animal.

[2] = system: homozygous JNPL3 tau P301L mice; assay: Traverse beam test, actively immunized JNPL3 P301L mice; format: in vivo, mouse; settings: at 8 months of age, vs adjuvant alone
Procedure: as §1
Traverse Beam: This task tests balance and general motor coordination and function integration. Mice were assessed by measuring their ability to traverse a graded narrow wooden beam to reach a goal box (Torres et al., “Behavioural, Histochemical and Biochemical Consequences of Selective Immunolesions in Discrete Regions of the Basal Forebrain Cholinergic System,” Neuroscience 63:95-122 (1994), which is hereby incorporated by reference in its entirety). The mice were placed on a 1.1 cm wide beam that is 50.8 cm long and suspended 30 cm above a padded surface by two identical columns. […] Mice were placed on the beam in a perpendicular orientation to habituate and were then monitored for a maximum of 60 sec. The number of foot slips each mouse had before falling or reaching the goal box were recorded for each of four successive trials. Errors are defined as footslips and were recorded numerically.

Row | Substance | antibody response against the immunogen (JNPL3 P301L tangle mice) | antibody response against the tau epitope (JNPL3 P301L tangle mice) | functional impairment, rotarod test [1] | pathological tau (PHF1 immunostaining) in the brain stem (pathological tau) | pathological tau (PHF1 immunostaining) in the dentate gyrus (pathological tau) | functional impairment, traverse beam (footslips) [2]
1 | IGS*TE [Tau260-264[P-Ser262]] | robust IgG response against the immunogen | a good portion of the antibody response is also generated against the tau epitope | prevented functional impairment | reduced the levels of pathological tau | reduced the levels of pathological tau | prevented functional impairment
2 | VRT*PPKS*PS [Tau229-237[P-Thr231-Ser235]] | robust antibody (IgG) response |  |  |  |  | 
3 | SRT*PS*LP [Tau210-216[P-Thr212-Ser214]] | robust IgG and IgM immune response |  |  |  |  | 
4 | RENAKAKTDHGAEIVYKXPVVSGDTXPRHL [Tau379-408[Asp396, 404]] | robust antibody (IgG) response |  |  |  |  | 
